Measured values taken from paper PMC9317696, “New Benzil and Isoflavone Derivatives with Cytotoxic and NO Production Inhibitory Activities from Placolobium vietnamense” (Molecules, 2022).
Read-outs that look alike come from different tables or passages of the source.

Tests used:
Assay type in all cases: cell-based
[1] = tested on: NO production in macrophage RAW 264.7 cells; experiment: Inhibition of LPS-induced NO production in RAW 264.7 macrophages (Griess); details: Mus musculus
Experimental: (§1) RAW 264.7 cells were stocked in Dulbecco’s Modified Essential and grown at the condition of 37 °C in DMEM supplemented with 10% heat-inactivated FBS, streptomycin sulfate (100 µg/mL), and penicillin (100 units/mL) in a humidified environment of 5% CO2. The RAW 264.7 cells were pre-incubated every two days.
The RAW 264.7 cells were stimulated with or without 1 μg/mL of LPS (lipopolysaccharide), which was purchased from Sigma Chemical Co. (St. Louis, MO, USA), for 24 h with or without 0.5% DMSO, celastrol, and isolated compounds at the indicated concentrations. The culture supernatant (100 μL) was then reacted with 100 μL of Griess reagent. After the Griess assay, the remaining cells were used to screen for their viability using colorimetric assay-MTT (Sigma Chemical Co., St. Louis, MO, USA).

Hep G2 cells = experiment: Cytotoxicity assay (MTT) against Hep G2 cell line; details: Homo sapiens
Experimental: According to a previous procedure, the cytotoxic evaluation of 1–8 against the growth of human hepatocellular carcinoma (Hep G2) cell line was carried out. The positive control was ellipticine, a powerful anticancer medication with various modes of action. The cancer cells were grown in Dulbecco’s Modified Essential Medium (DMEM) at 37 °C in a 5 % CO2 environment with 10% fetal bovine serum (FBS), 1% penicillin and streptomycin, and 1% L-glutamine. The investigated compounds were added at concentrations ranging from 0.5 to 128 µg/mL by dissolving in DMSO (20 mg/mL), and the incubation was carried out once more for 72 h under the same conditions. Following the procedure, an MTT solution (10 µL, 5 mg/mL) was added to each well. The percentage of cell viability vs. sample concentration was plotted using SigmaPlot 10 (Systat Software Inc., San Jose, CA, USA) to calculate the IC50 values.

[2] = Cell viability assay (MTT) on RAW 264.7 cells; details: mouse, read-out: cytotoxicity toward RAW 264.7 cells IC50
Experimental: as §1
The cell viability assay was used to determine the cytotoxic effect of the isolated compounds on RAW 264.7 cells. At a density of 1 × 10^5 cells per well, RAW 264.7 cells were seeded on a 96-well plate and allowed to adhere for 4 h. Then, the cells were treated with 0.5% DMSO, celastrol, and isolated compounds at the indicated concentrations. Celastrol was used as a positive control. After incubating 24 h, the viable cells were measured with a colorimetric assay based on the mitochondria’s ability in viable cells to reduce MTT [18]. The viability cells were treated with vehicle only and were defined as 100% viable. [OD570 (treated cell culture) × 100]/OD570 was the formula used to determine the percentage of macrophage surviving cells after treatment (vehicle control).

[3] = RAW264.7, RAW 264.7 cells, 1 μg/mL LPS, 24 h, Griess reagent, mean of three experiments ± SD, read-out: NO Production (IC50)
[4] = HepG2, 72 h, read-out: Cytotoxicity (IC50, µM)

| Structure (SMILES) | IC50 ([1]; RAW264.7, 24 h, read-out: NO Production (IC50, µM)) [µM] | IC50 [1, 3] [µM] | IC50 (Hep G2 cells; [4]) [µM] | IC50 at 24 h [2] [µM] | IC50 (Hep G2 cells; HepG2, Hep G2 cells, 72 h, MTT, mean of three experiments ± SD, read-out: Cytotoxicity (IC50)) [µM] |
| --- | --- | --- | --- | --- | --- |
| CC1=C(O)C(=O)C=C2C1=CC=C1[C@@]2(C)CC[C@@]2(C)[C@@H]3C[C@](C)(C(=O)O)CC[C@]3(C)CC[C@]12C [Celastrol, celastrol, reference compound] | 1 ± 0.1 |  |  |  |  |
| COc1ccc(-c2coc3c4c(c(OC)cc3c2=O)OC(C)(C)CC4)cc1 [Compound 1, placovinone A] |  | 13.7 ± 0.5 | 8 ± 0.2 | 79.2 |  |
| COc1cc(OC)c(C(=O)C(=O)c2cc(OC)c3c(c2O)C=CC(C)(C)O3)cc1OC [Compound 2, placovinone B] |  | 31 ± 0.3 | 19.8 ± 1.5 |  |  |
| COc1cc(OC)c(OC)cc1CC(=O)c1cc(OC)c2c(c1O)C=CC(C)(C)O2 [Compound 3, placovinone C] |  | 47.4 ± 0.3 | 22.9 ± 0.5 |  |  |
| COc1ccc(CC(=O)c2cc(OC)c3c(c2O)C=CC(C)(C)O3)cc1 [Compound 4, placovinone D] |  | 15.5 ± 0.4 | 23.4 ± 0.5 | 42.6 |  |
| COc1cc2c(cc1-c1coc3c4c(c(OC)cc3c1=O)OC(C)(C)C=C4)OCO2 [Compound 5, ichthynone] |  | > 100 | 99.1 ± 0.9 |  |  |
| COc1cc2c(=O)c(-c3ccc4c(c3)OCO4)coc2c2c1OC(C)(C)C=C2 [Compound 6, durmillone] |  | > 100 | 71.6 ± 0.6 |  |  |
| CC1(C)C=Cc2c(ccc3c(=O)c(-c4ccc5c(c4)OCO5)coc23)O1 [Compound 7, calopogoniumisoflavone B] |  | > 100 | 66.6 ± 0.5 |  |  |
| COc1ccc(-c2coc3c4c(ccc3c2=O)OC(C)(C)C=C4)cc1OC [Compound 8, 4′,5′-dimethoxy-6,6-dimethylpyranoisoflavone] |  | 54.7 ± 0.2 | 35.6 ± 0.3 |  |  |
| Cc1c2ccncc2c(C)c2c1[nH]c1ccccc12 [Ellipticine, ellipticine, reference compound] |  |  |  |  | 0.43 ± 0.03 |
